Results: BindingDB's records for doi:10.1007/bf00176615 (Sandoz Pharma, 1992)

What was measured:
[1] = target: T1, Alpha-1A adrenergic receptor (Bos taurus, UniProt P18130)
T1 sequence (P18130 whole entry): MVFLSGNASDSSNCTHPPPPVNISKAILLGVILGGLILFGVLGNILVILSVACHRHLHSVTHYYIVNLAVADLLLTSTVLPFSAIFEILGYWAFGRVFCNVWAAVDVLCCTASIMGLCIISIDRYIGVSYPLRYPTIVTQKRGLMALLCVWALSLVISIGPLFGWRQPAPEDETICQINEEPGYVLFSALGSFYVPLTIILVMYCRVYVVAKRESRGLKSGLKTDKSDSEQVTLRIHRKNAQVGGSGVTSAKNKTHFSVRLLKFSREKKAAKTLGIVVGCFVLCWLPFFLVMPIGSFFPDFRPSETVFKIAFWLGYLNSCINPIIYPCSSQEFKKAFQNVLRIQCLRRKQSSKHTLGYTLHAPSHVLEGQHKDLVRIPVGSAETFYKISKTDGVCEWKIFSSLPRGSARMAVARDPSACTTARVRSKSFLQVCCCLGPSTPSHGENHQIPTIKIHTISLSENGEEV

[2] = target: 5-hydroxytryptamine 1D receptor (Bos taurus, UniProt Q8MI13)
Chain of 5-hydroxytryptamine 1D receptor (Q8MI13 whole entry): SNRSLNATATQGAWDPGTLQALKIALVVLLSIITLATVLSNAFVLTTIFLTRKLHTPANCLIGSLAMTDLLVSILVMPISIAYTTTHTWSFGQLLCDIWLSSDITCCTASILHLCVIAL

[3] = target: 5-hydroxytryptamine receptor 2A (Rattus norvegicus, UniProt P14842)
Chain of 5-hydroxytryptamine receptor 2A (P14842 whole entry): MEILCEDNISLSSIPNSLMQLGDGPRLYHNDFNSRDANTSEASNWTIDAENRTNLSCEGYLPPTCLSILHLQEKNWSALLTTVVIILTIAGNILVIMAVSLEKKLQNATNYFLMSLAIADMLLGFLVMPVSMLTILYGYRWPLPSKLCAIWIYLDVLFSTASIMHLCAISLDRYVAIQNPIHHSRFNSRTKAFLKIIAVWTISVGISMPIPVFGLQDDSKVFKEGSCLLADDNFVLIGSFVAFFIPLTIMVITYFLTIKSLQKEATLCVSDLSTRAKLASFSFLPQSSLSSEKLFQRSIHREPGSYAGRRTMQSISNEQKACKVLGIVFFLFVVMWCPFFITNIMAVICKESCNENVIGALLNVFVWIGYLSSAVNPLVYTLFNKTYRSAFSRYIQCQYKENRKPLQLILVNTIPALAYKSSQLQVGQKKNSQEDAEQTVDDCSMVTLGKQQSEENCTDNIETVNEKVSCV

[4] = target: Mu-type opioid receptor (Rattus norvegicus, UniProt P33535)
Chain of Mu-type opioid receptor (P33535 whole entry): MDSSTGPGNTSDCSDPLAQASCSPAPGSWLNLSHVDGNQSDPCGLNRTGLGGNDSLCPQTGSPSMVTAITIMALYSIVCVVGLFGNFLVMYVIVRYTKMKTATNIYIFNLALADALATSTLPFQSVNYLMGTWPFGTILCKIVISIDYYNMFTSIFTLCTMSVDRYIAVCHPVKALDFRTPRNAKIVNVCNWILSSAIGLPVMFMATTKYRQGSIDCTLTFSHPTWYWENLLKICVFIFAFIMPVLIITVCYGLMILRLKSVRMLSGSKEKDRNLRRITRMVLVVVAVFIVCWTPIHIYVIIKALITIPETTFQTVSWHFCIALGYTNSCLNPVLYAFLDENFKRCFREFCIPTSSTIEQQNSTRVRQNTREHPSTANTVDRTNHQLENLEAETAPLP

[5] = target: T2, Alpha-2A adrenergic receptor (Bos taurus, UniProt Q28838)
T2 sequence (Q28838 whole entry): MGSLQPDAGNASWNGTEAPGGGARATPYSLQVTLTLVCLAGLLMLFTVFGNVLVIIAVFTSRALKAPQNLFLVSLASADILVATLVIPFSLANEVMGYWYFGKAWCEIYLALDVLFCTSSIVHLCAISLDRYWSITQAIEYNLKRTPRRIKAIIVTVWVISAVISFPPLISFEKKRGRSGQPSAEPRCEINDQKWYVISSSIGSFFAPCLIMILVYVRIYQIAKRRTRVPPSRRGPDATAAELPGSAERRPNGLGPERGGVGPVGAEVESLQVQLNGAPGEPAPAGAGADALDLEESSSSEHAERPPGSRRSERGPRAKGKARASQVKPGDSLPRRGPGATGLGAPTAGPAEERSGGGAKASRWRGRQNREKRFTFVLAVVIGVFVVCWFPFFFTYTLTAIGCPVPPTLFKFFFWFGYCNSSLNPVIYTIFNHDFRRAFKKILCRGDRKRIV

[6] = target: T3, 5-hydroxytryptamine receptor 2C (Sus scrofa, UniProt G7ZKZ7)
T3 sequence (G7ZKZ7 whole entry): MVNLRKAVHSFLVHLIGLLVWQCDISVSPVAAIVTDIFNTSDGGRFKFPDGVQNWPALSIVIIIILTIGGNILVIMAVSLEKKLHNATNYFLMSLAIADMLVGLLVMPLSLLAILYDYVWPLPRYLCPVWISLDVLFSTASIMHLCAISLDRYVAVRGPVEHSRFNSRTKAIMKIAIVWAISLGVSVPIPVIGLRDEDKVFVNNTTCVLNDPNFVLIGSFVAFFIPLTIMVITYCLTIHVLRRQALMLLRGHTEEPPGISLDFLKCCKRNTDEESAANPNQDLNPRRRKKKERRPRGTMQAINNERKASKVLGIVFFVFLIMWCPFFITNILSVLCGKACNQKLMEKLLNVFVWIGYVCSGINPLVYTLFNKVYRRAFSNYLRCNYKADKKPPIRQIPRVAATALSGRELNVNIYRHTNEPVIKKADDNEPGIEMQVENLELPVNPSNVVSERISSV

CCN(CC)CCOC(=O)c1cc(Cl)c(N)cc1OC [SDZ-205557]
Ki [1]: 6.31 µM
Ki [2]: 2.51 µM
Ki [3]: > 10 µM
Ki [4]: > 10 µM
Ki [5]: > 10 µM
Ki [6]: 3.98 µM
